Data published in patent US10856562B2, “Flavor composition and edible compositions containing same” (MARS, INCORPORATED, priority 2013, dated 2020).
Square brackets hold non-standard residues; d marks the D form. Ends that are not written are not given here. pGlu = O=C1CC[C@@H](C(=O)O)N1

Tests used:
panelists = assay: Consensus attribute scores of flavor enhancers in Uncle Ben's Garden Vegetable Ready rice; type: in vivo, human; parameters: key to Cooked White Rice / Vegetable Oil / Vegetable Complex / Cooked Green Vegetable / Cooked Corn / Sweet (BASIC TASTES) / Salt (BASIC TASTES) / Mouthdrying (Texture) / Residual Mouthcoating (Texture) / Total Aromatics / Bitter (BASIC TASTES): 15-point scale, 0 = none, 15 = very strong; details: for Black Pepper / Cooked Corn / Cooked Green Vegetable / Cooked White Rice / Dehydrated onion/garlic / HVP/Brothy / Mineral/Flint / Mouthdrying (Texture) / Residual Mouthcoating (Texture) / Salt (BASIC TASTES) / Salt Burn (Chemical Feeling Factors) / Sweet (BASIC TASTES) / Total Aromatics / Umami (Chemical Feeling Factors) / Vegetable Complex / Vegetable Oil: rice
Protocol: Descriptive attributes (e.g., taste, flavor and chemical feeling factors) of three use levels of pGlu-Cys (FE-35), pGlu-Cys-Gly (FE-36), pGlu-Cys-Cys (FE-37), pGlu-Cys-Val (FE-38) and pGlu-Val-Cys (UE-30) flavor composition peptides were determined. The three use levels were as follows: 1.0 ppb, 10.0 ppb and 100.0 ppb.
Data was collected for the attributes of the product in-mouth for the use levels according to the following protocol: • The samples were analyzed for flavor by six to nine members of a panel, trained and experienced in flavor evaluation using the Spectrum™ method. Samples were evaluated across multiple panel sessions. • The strength of each attribute was rated on a 15-point scale, where 0=none and 15=very strong. • This scale incorporates the ability to use tenths of a point and therefore has the potential of 150 scale differentiations. • The scale may be expanded beyond 15 points to include extreme ratings if necessary.
Preparation of Rice Samples • Each flavor enhancer was tested in Uncle Ben's Garden Vegetable Ready rice matrix at 3 different concentrations: 1 ppb, 10 ppb and 100 ppb. A total of 15 points with flavor enhancers were prepared for sensory evaluation. Additionally, 15 control samples were prepared. Each point had 2 samples (test and control) and was made from one pouch of rice. • Directions to prepare the solutions: • The 15 ready- to eat pouches were microwaved according to the procedure found on the back of the pouch: (1) squeeze pouch to separate rice, (2) tear two inches to vent, (3) heat on High for 90 seconds and (4) remove from microwave using COOL TOUCH area on untorn side. • From each pouch 124.75 g (test sample) and 99.8 g (control) were weighed out. The test sample had the flavor enhancer and/or salt. The control sample only had salt added. • The flavor enhancer and/or salt (non-iodized salt) were weighed in a soufflé cup. The weighed amount of flavor enhancer and/or salt was added to the sub-sampled rice. The rice was stirred and mixed to evenly distribute the salt added. • Some rice was placed back into the soufflé cup, sealed, and the cup was shook to get the flavor enhancer and/or salt that may have been stuck on the walls of the soufflé cup. After shaking the soufflé cup, the rice was added back to the original sub-sampled rice and stirred/mixed again. • Each sample (test and control) was microwaved for another 30 seconds (or until warm) to ensure that the salts/compounds were going completely into the solutions. • All samples (test and control) were tasted at the same temperature. • Each test sample had 0.2% NaCl added and flavor enhancers at the specified concentrations.
A summary of the concentrations of NaCl and flavor composition peptides in the rice samples is described in table 23. The first value of each cell represents a single sample amount of an ingredient in milligrams, and the second number in parenthesis is a doubling of the ingredient (in grams) for use in a doubled size sample.
The panelists evaluated each sample for the attributes described by table 25.

panel of trained tasters = assay: Saltiness of sodium-reduced pasta sauce with peptides, panel of trained tasters; type: in vivo, human; details: 10 ppb of UE-30
Protocol: Food product compositions were prepared by admixing flavor composition peptide(s) of the present application with food compositions, wherein the level of sodium (NaCl) in the food product compositions was reduced. The level of sodium was reduced by 25%, 50% or 75% compared to food products compositions that were not admixed with flavor composition peptides. The food product compositions comprising the flavor composition peptides were tasted by a panel of trained tasters and the level of saltiness was compared to the control food products.
The peptides pGlu-Val-Leu (identified as “SE-13”), pGlu-Val-Cys (identified as “UE-30”) and pGlu-Val-Val (identified as “SE-17”) were tested in Pasta Sauce. The control pasta sauce comprised 540 mg sodium (NaCl) in a 125 g serving.

## [pGlu]-Val-Cys [UE-30]
panelists; 10 and 100 ppb
  Mouthdrying in rice: low mouthdrying
panelists; all samples (1, 10, 100 ppb)
  Cooked green vegetable in rice compared to the Control: low level of cooked green vegetable
  Salt burn feeling factor in rice compared to the Control: higher
  Salt in rice compared to the Control: saltier than the Control
  Umami feeling factor in rice compared to the Control: higher
panelists; 1.0 ppb (5 ppm)
  Black Pepper: 1.3
  Cooked Corn: 0.8
  Cooked Green Vegetable: 0.8
  Cooked White Rice: 3.0
  Dehydrated onion/garlic: 1.0
  HVP/Brothy: 1.5
  Mineral/Flint: 0.0
  Mouthdrying (Texture): 0.0
  Residual Mouthcoating (Texture): 1.0
  Salt (BASIC TASTES): 15.0
  Salt Burn (Chemical Feeling Factors): 1.0
  Sweet (BASIC TASTES): 3.0
  Total Aromatics: 6.8
  Umami (Chemical Feeling Factors): 1.5
  Vegetable Complex: 1.5
  Vegetable Oil: 0.8
panelists; 10.0 ppb (50 ppm)
  Black Pepper: 1.5
  Cooked Corn: 1.0
  Cooked Green Vegetable: 1.0
  Cooked White Rice: 3.0
  Dehydrated onion/garlic: 1.0
  HVP/Brothy: 1.5
  Mineral/Flint: 0.5
  Mouthdrying (Texture): 1.8
  Residual Mouthcoating (Texture): 1.0
  Salt (BASIC TASTES): 15.0
  Salt Burn (Chemical Feeling Factors): 0.8
  Sweet (BASIC TASTES): 3.5
  Total Aromatics: 6.8
  Umami (Chemical Feeling Factors): 2.0
  Vegetable Complex: 1.8
  Vegetable Oil: 0.8
panelists; 100 ppb (50 ppm)
  Black Pepper: 1.5
  Cooked Corn: 1.0
  Cooked Green Vegetable: 1.0
  Cooked White Rice: 3.0
  Dehydrated onion/garlic: 1.0
  HVP/Brothy: 1.5
  Mineral/Flint: 0.5
  Mouthdrying (Texture): 1.5
  Residual Mouthcoating (Texture): 1.5
  Salt (BASIC TASTES): 16.0
  Salt Burn (Chemical Feeling Factors): 1.3
  Sweet (BASIC TASTES): 3.5
  Total Aromatics: 6.8
  Umami (Chemical Feeling Factors): 3.0
  Vegetable Complex: 1.8
  Vegetable Oil: 0.5
Panel of trained tasters
  Off-taste: had a metallic taste
